Experimental data: ChEMBL document CHEMBL3885881, “DrugMatrix”

Species on record: Rattus norvegicus
Assay: DrugMatrix - Regimen: Daily Repeat
Format: toxicity, organism-based, Sprague-Dawley
Design: regimen Daily Repeat, gender Male, age 6-8 weeks
Conditions: in vivo, po, route oral GAVAGE, vehicle .5 % CMC; for ABSOLUTE BASOPHIL / ABSOLUTE EOSINOPHIL / ABSOLUTE LYMPHOCYTE / ABSOLUTE MONOCYTE / ABSOLUTE SEGMENTED NEUTROPHIL / BASOPHIL / EOSINOPHIL / ERYTHROCYTE COUNT / HEMATOCRIT / HEMOGLOBIN / LEUKOCYTE COUNT / LYMPHOCYTE / MEAN CORPUSCULAR HEMOGLOBIN / MEAN CORPUSCULAR HEMOGLOBIN CONCENTRATION / MEAN CORPUSCULAR VOLUME / MONOCYTE / NEUTROPHIL / NUCLEATED RED BLOOD CELLS / PLATELET COUNT: tissue Blood; for ALANINE AMINOTRANSFERASE / ALBUMIN / ALKALINE PHOSPHATASE / ASPARTATE AMINOTRANSFERASE / BLOOD UREA NITROGEN / CARBON DIOXIDE / CHLORIDE / CHOLESTEROL / CREATINE PHOSPHOKINASE / CREATININE / GLUCOSE / LACTATE DEHYDROGENASE / LIPASE / PHOSPHORUS / POTASSIUM / SODIUM / TOTAL BILIRUBIN / TOTAL PROTEIN / URIC ACID: tissue Plasma
[1] = 50 mg/kg, 120 h, dose level Low, time 5 day
[2] = 500 mg/kg, 72 h, dose level High, time 3 day
[3] = 500 mg/kg, 120 h, dose level High, time 5 day

Compound: CC1(C)[C@H]2CC[C@]1(C)C(=O)C2 [(-)-CAMPHOR]
- ABSOLUTE BASOPHIL [1]: 0 CELLS/uL
- ABSOLUTE EOSINOPHIL [1]: 46.67 CELLS/uL
- ABSOLUTE LYMPHOCYTE [1]: 13460 CELLS/uL
- ABSOLUTE MONOCYTE [1]: 0 CELLS/uL
- ABSOLUTE SEGMENTED NEUTROPHIL [1]: 2360 CELLS/uL
- BASOPHIL [1]: 0%
- EOSINOPHIL [1]: 0.33%
- ERYTHROCYTE COUNT [1]: 5.24 x10E6/uL
- HEMATOCRIT [1]: 32.6%
- HEMOGLOBIN [1]: 12.5 G/DL
- LEUKOCYTE COUNT [1]: 15.87 x10E3/uL
- LYMPHOCYTE [1]: 86.33%
- MEAN CORPUSCULAR HEMOGLOBIN [1]: 23.9 pg
- MEAN CORPUSCULAR HEMOGLOBIN CONCENTRATION [1]: 38.33 G/DL
- MEAN CORPUSCULAR VOLUME [1]: 62.27 fL
- MONOCYTE [1]: 0%
- NEUTROPHIL [1]: 13.33%
- NUCLEATED RED BLOOD CELLS [1]: 0 /100WBC
- PLATELET COUNT [1]: 1253.67 x10E3/uL
- ALANINE AMINOTRANSFERASE [1]: 61.33 u/L
- ALBUMIN [1]: 4.37 G/DL
- ALKALINE PHOSPHATASE [1]: 416.33 u/L
- ASPARTATE AMINOTRANSFERASE [1]: 88.33 u/L
- BLOOD UREA NITROGEN [1]: 18.67 mg/dL
- CARBON DIOXIDE [1]: 22.67 mmol/L
- CHLORIDE [1]: 102.67 MEQ/L
- CHOLESTEROL [1]: 64.33 mg/dL
- CREATINE PHOSPHOKINASE [1]: 328 u/L
- CREATININE [1]: 0.25 mg/dL
- GLUCOSE [1]: 194.33 mg/dL
- LACTATE DEHYDROGENASE [1]: 167.67 u/L
- LIPASE [1]: 9 u/L
- PHOSPHORUS [1]: 12.53 mg/dL
- POTASSIUM [1]: 6.26 MEQ/L
- SODIUM [1]: 143.3 MEQ/L
- TOTAL BILIRUBIN [1]: 0.17 mg/dL
- TOTAL PROTEIN [1]: 6.13 G/DL
- URIC ACID [1]: 2.63 mg/dL
- ABSOLUTE BASOPHIL [2]: 0 CELLS/uL
- ABSOLUTE EOSINOPHIL [2]: 155.67 CELLS/uL
- ABSOLUTE LYMPHOCYTE [2]: 12828.67 CELLS/uL
- ABSOLUTE MONOCYTE [2]: 0 CELLS/uL
- ABSOLUTE SEGMENTED NEUTROPHIL [2]: 1649 CELLS/uL
- BASOPHIL [2]: 0%
- EOSINOPHIL [2]: 1%
- ERYTHROCYTE COUNT [2]: 5.48 x10E6/uL
- HEMATOCRIT [2]: 34.93%
- HEMOGLOBIN [2]: 13.23 G/DL
- LEUKOCYTE COUNT [2]: 14.63 x10E3/uL
- LYMPHOCYTE [2]: 88.33%
- MEAN CORPUSCULAR HEMOGLOBIN [2]: 24.13 pg
- MEAN CORPUSCULAR HEMOGLOBIN CONCENTRATION [2]: 37.9 G/DL
- MEAN CORPUSCULAR VOLUME [2]: 63.7 fL
- MONOCYTE [2]: 0%
- NEUTROPHIL [2]: 10.67%
- NUCLEATED RED BLOOD CELLS [2]: 0 /100WBC
- PLATELET COUNT [2]: 1178.33 x10E3/uL
- ALANINE AMINOTRANSFERASE [2]: 50.67 u/L
- ALBUMIN [2]: 4.3 G/DL
- ALKALINE PHOSPHATASE [2]: 369.33 u/L
- ASPARTATE AMINOTRANSFERASE [2]: 74.67 u/L
- BLOOD UREA NITROGEN [2]: 14 mg/dL
- CARBON DIOXIDE [2]: 26.67 mmol/L
- CHLORIDE [2]: 100.33 MEQ/L
- CHOLESTEROL [2]: 67.67 mg/dL
- CREATINE PHOSPHOKINASE [2]: 382.33 u/L
- CREATININE [2]: 0.15 mg/dL
- GLUCOSE [2]: 154 mg/dL
- LACTATE DEHYDROGENASE [2]: 99 u/L
- LIPASE [2]: 9 u/L
- PHOSPHORUS [2]: 12.53 mg/dL
- POTASSIUM [2]: 6.1 MEQ/L
- SODIUM [2]: 145.07 MEQ/L
- TOTAL BILIRUBIN [2]: 0.2 mg/dL
- TOTAL PROTEIN [2]: 5.93 G/DL
- URIC ACID [2]: 1.47 mg/dL
- ABSOLUTE BASOPHIL [3]: 0 CELLS/uL
- ABSOLUTE EOSINOPHIL [3]: 124.33 CELLS/uL
- ABSOLUTE LYMPHOCYTE [3]: 12652.67 CELLS/uL
- ABSOLUTE MONOCYTE [3]: 0 CELLS/uL
- ABSOLUTE SEGMENTED NEUTROPHIL [3]: 1356.33 CELLS/uL
- BASOPHIL [3]: 0%
- EOSINOPHIL [3]: 1%
- ERYTHROCYTE COUNT [3]: 5.72 x10E6/uL
- HEMATOCRIT [3]: 37.43%
- HEMOGLOBIN [3]: 14.2 G/DL
- LEUKOCYTE COUNT [3]: 14.13 x10E3/uL
- LYMPHOCYTE [3]: 89.67%
- MEAN CORPUSCULAR HEMOGLOBIN [3]: 24.83 pg
- MEAN CORPUSCULAR HEMOGLOBIN CONCENTRATION [3]: 37.93 G/DL
- MEAN CORPUSCULAR VOLUME [3]: 65.4 fL
- MONOCYTE [3]: 0%
- NEUTROPHIL [3]: 9.33%
- NUCLEATED RED BLOOD CELLS [3]: 0 /100WBC
- PLATELET COUNT [3]: 1132 x10E3/uL
- ALANINE AMINOTRANSFERASE [3]: 46.67 u/L
- ALBUMIN [3]: 4.47 G/DL
- ALKALINE PHOSPHATASE [3]: 355.33 u/L
- ASPARTATE AMINOTRANSFERASE [3]: 67.33 u/L
- BLOOD UREA NITROGEN [3]: 15 mg/dL
- CARBON DIOXIDE [3]: 26.67 mmol/L
- CHLORIDE [3]: 101 MEQ/L
- CHOLESTEROL [3]: 59 mg/dL
- CREATINE PHOSPHOKINASE [3]: 203.33 u/L
- CREATININE [3]: 0.17 mg/dL
- GLUCOSE [3]: 169.67 mg/dL
- LACTATE DEHYDROGENASE [3]: 99.33 u/L
- LIPASE [3]: 9 u/L
- PHOSPHORUS [3]: 12.5 mg/dL
- POTASSIUM [3]: 7.1 MEQ/L
- SODIUM [3]: 145.87 MEQ/L
- TOTAL BILIRUBIN [3]: 0.2 mg/dL
- TOTAL PROTEIN [3]: 6.37 G/DL
- URIC ACID [3]: 1.77 mg/dL
